Key:
[1] = test system: MDA-MB-453 cells; experiment: Cell death quantification (Sytox Green), RSL3-induced ferroptosis; format: cell-based, human; settings: RSL3 1 μM, GDC-0941 2 μM, MK-2206 2 μM, Torin 1 μM, CCI-779 0.5 μM, Fatostatin A 5 μM, CAY10566 5 μM
Procedure: (§1) FIG. 1 A-D. Oncogenic activation of the PI3K-AKT-mTOR signaling pathway confers resistance to ferroptosis. (A) Genetic background of the analyzed cancer cell lines and their sensitivity to RSL3. (B) Cells were seeded in 96-well plate, 2×10^4 cells per well and incubated overnight. Cell death was induced by 24-h treatment of RSL3 with indicated concentrations. Cell death were measured by Sytox Green staining, as detailed in Methods. (C) Indicated protein components in the PI3K-AKT pathway were detected by western blot in indicated cell types. (D) Cells were treated with or without PI3K inhibitor GDC-0941 (2 μM), AKT inhibitor MK-2206 (2 μM), RSL3 (1 μM), or ferroptosis inhibitor Ferrostatin-1 (Fer-1, 1 μM) as indicated for 12 h (BT474) or 24 h (MDA-MB-453). Cell death was measured. Indicators for P values (same in all other figures): ****, P≤0.0001; *** P≤0.001; **, P≤0.01; *, P≤0.05; ns, P>0.05
(§2) FIG. 2 A-E. mTORC1, instead of mTORC2, suppresses ferroptosis. (A) MDA-MB-453 and BT474 were treated with CCI-779 (0.5 μM), RSL3 (1 μM for MDA-MB-453 cells and 0.5 μM for BT474 cells), and Fer-1 (1 μM) as indicated. (B) Cells were seeded in 6-well plate, 4×10^5 cells per well and incubated overnight. MDA-MB-453 and BT474 cells were treated as indicated. CCI-779, 0.5 μM; RSL3, 1 μM for MDA-MB-453 cells and 0.5 μM for BT474 cells; Fer-1, 1 μM. Cells were stained with 5 μM C1I-BODIPY followed by flow cytometry after 8 h-treatment. (C) 3D spheroids were treated as indicated. CCI-779, 0.5 μM; RSL3, 0.5 μM; Fer-1, 1 μM. Top panel, dead cells were stained by SYTOX Green (scale bar, 100 μm). Bottom panel, cell viability was assayed by measuring cellular ATP levels. (D) Cells expressing shRNAs targeting RPTOR or RICTOR were treated as indicated. CCI-779, 0.5 μM; RSL3, 0.5 μM; Fer-1, 1 μM. (E) Lipid peroxidation of samples as in panel D were measured.
(§3) FIG. 5 A-H. SREBP1 protects cells from ferroptosis through SCD1 activity. (A) The expression of SREBP1, and its targets SCD1, FASN, and ACACA, in control and SREBF1-sgRNA cells were detected by western blot. (B) The mRNA level of SREPF1 and its targets gene SCD were measured by RT-PCR. (C) Cells were pretreated with or without 5 μM CAY10566 overnight, and then subjected to the indicated treatments. RSL3, 0.5 μM for BT474 cells and 1 μM for MDA-MB-453 cells; CAY10566, 5 μM; Fer-1, 1 μM. (D) Cells expressing control or SCD-sgRNA were treated as indicated. RSL3, 1 μM for MDA-MB-453 cells and 0.5 μM for BT474 cells; Fer-1, 1 μM. (E) 3D spheroids derived from BT474 cells harboring control or SCD-sgRNA were treated as indicated. RSL3, 0.5 μM; CCI-779, 0.5 μM; Fer-1, 1 μM. Left, cell death staining (scale bar, 100 m). Right, cell viability. (F) SCD1 was overexpressed in BT474 cells and determined by western blot. Cells were treated as indicated. RSL3, 0.5 μM; CCI-779, 0.5 μM. (G) 3D spheroids derived from BT474 cells with control or SCD1 overexpression were treated as indicated. RSL3, 0.5 μM; CCI-779, 0.5 μM; Fer-1, 1 μM. Left, cell death staining (scale bar, 100 m). Right, cell viability. (H) Cells were treated as indicated. RSL3, 0.5 μM for BT474 and 1 μM for MDA-MB-453; CCI-779, 0.5 μM; Oleic acid (OA), 0.5 mM; stearic acid (SA), 0.5 mM.
(§4) FIG. 7 A-J. PI3K-AKT-mTOR signaling regulates ferroptosis sensitivity. (A) Cells were treated as indicated. GDC-0941, 2 μM; MK-2206, 2 μM; RSL3, 1 μM; Fer-1, 1 μM. Lipid peroxidation was measured. (B) Cells were treated with indicated conditions. Torin, 1 μM; RSL3, 1 μM for MDA-MB-453 cells and 0.5 μM for BT474 cells; Fer-1, 1 μM. Cell death was measured. (C) Cells were treated with indicated conditions. RSL3, 10 μM for MCF cells and PC-3 cells, 5 μM for T47D cells, 1 μM for HepG2 cells; Torin, 1 μM; CCI-779, 0.5 μM. (D) Cells were treated as indicated. CCI-779, 0.5 μM; Torin, 1 μM; Fer-1, 1 μM. Cell death was staining by propidium iodide (PI) (red) or Sytox Green (green) (scale bar, 100 μm). (E-F) 3D spheroids for MDA-MB-453 cells and MCF7 cells were treated as indicated. […]

[2] = test system: BT474 cells; experiment: as above; format: cell-based, human; settings: RSL3 0.5-1 μM, GDC-0941 2 μM, MK-2206 2 μM, Torin 1 μM, CCI-779 0.5 μM, Fatostatin A 5 μM, CAY10566 5 μM
Procedure: as §1, §2, §3, §4

Row | SMILES | sensitization to ferroptosis (cell death) induced by RSL3 [1] | sensitization to ferroptosis (cell death) induced by RSL3 [2]
1 | CCC(=O)N1CCN(c2ccc(-n3c(=O)ccc4cnc5ccc(-c6cnc7ccccc7c6)cc5c43)cc2C(F)(F)F)CC1 [Torin] | sensitized | sensitized
2 | NC1(c2ccc(-c3nc4ccn5c(=O)[nH]nc5c4cc3-c3ccccc3)cc2)CCC1 [MK-2206] | sensitized | sensitized
3 | Cc1nnc(-c2ccc(N3CCC(Oc4cc(F)ccc4Cl)CC3)nn2)o1 [CAY10566] | sensitized the effect of RSL3 | sensitized the effect of RSL3
4 | CS(=O)(=O)N1CCN(Cc2cc3nc(-c4cccc5[nH]ncc45)nc(N4CCOCC4)c3s2)CC1 [GDC-0941] | sensitized | sensitized
5 | CCCc1cc(-c2nc(-c3ccc(C)cc3)cs2)ccn1 [Fatostatin A] | sensitized ferroptosis | sensitized ferroptosis
6 | CO[C@H]1C[C@@H]2CC[C@@H](C)[C@@](O)(O2)C(=O)C(=O)N2CCCC[C@H]2C(=O)O[C@H]([C@H](C)C[C@@H]2CC[C@@H](OC(=O)C(C)(CO)CO)[C@H](OC)C2)CC(=O)[C@H](C)/C=C(\C)[C@@H](O)[C@@H](OC)C(=O)[C@H](C)C[C@H](C)/C=C/C=C/C=C/1C [CCI-779, Temsirolimus] | sensitize | sensitize
